Experimental data published in ChEMBL document CHEMBL1201862, “PubChem BioAssay data set” (2004).
Calls of active or inactive are those of the source.

How the values were obtained:
[1] = off-target signal loss in HeLa-CEM21 co-culture – HeLa F-luc CTL cells, cherry-picked, counter-screen for HIV-1 Env fusion inhibitor project, dose response (AID 652040); assay type: functional, cell-based;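 also: potency for signal decrease marking cytotoxic or nonspecific inhibition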
[2] = HIV-1 AD8 envelope cell-cell fusion blockers – cherry-pick, dose response (AID 652062); assay type: functional, cell-based;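 also: luciferase signal from cell-cell fusion driven by HIV-1 clade B AD8 Env; potency is for inhibitors of fusion seen as a drop in luminescence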
[3] = blockers of HIV-1 envelope-mediated cell-cell fusion – cherry-pick, dose response (AID 652057); assay type: functional, cell-based
[4] = blockers of HIV-1 ZM109 envelope-driven cell-cell fusion – HeLa effector, CEM target cells, luciferase, cherry-pick, dose response (AID 652058); assay type: functional, cell-based;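 also: luciferase signal from HIV-1 Env mediated cell-cell fusion of effector and target cells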
[5] = target: T1, Endoribonuclease toxin MazF (Escherichia coli K-12, UniProt P0AE70); assay: activation of MazEF endoribonuclease cleavage – biochemical, fluorescence, single-stranded RNA substrate, uHTS hits, dose response (AID 588481); assay type: functional
T1 sequence (P0AE70 whole entry): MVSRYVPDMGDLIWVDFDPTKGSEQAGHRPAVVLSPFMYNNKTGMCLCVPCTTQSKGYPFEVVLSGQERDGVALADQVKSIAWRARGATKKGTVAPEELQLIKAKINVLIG

[6] = target: T2, Sentrin-specific protease 1 (Homo sapiens, UniProt Q9P0U3); assay: SENP1 catalytic domain blockers, concentration series – biochemical, kinetic FRET, dose response (AID 651697); assay type: functional; details: read-out: IC50_Mean
T2 sequence (Q9P0U3 whole entry): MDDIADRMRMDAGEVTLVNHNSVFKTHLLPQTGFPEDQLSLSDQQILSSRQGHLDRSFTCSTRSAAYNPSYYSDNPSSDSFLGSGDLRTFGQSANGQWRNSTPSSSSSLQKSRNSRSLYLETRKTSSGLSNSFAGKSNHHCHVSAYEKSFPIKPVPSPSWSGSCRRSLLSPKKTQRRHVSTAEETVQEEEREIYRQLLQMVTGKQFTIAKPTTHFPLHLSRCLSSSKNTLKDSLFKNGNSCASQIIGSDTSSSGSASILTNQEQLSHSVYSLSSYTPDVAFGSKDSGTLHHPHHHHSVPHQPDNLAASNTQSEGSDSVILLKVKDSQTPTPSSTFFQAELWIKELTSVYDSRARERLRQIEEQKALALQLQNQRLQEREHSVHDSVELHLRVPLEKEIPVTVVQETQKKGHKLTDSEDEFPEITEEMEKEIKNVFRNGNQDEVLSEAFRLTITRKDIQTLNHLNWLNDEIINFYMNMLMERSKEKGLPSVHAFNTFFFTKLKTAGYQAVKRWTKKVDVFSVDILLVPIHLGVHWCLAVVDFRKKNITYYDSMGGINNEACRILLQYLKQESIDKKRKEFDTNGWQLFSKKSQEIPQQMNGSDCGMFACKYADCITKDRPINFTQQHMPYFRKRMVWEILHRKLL

[7] = microbe, parasite or virus in culture; assay type: functional; details: Mycobacterium tuberculosis
[8] = target: T2, Sentrin-specific protease 1; assay: Dose response confirmation of small molecule inhibitors of the catalytic domain of the SUMO protease, SENP1 in a FRET assay.; assay type: functional; details: read-out: IC50_Mean
[9] = target: T1, Endoribonuclease toxin MazF; assay: substrate-only fluorescence increase artefacts – biochemical, single-stranded RNase substrate, counter-screen for MazEF activator project, dose response (AID 588502); assay type: functional
Galanin receptor type 3 = target: T3, Galanin receptor type 3 (Homo sapiens, UniProt O60755); assay: Fluorescence-based cell-based primary high throughput dose response assay to identify antagonists of the Galanin Receptor 3 (GalR3).; assay type: functional
T3 sequence (O60755 whole entry): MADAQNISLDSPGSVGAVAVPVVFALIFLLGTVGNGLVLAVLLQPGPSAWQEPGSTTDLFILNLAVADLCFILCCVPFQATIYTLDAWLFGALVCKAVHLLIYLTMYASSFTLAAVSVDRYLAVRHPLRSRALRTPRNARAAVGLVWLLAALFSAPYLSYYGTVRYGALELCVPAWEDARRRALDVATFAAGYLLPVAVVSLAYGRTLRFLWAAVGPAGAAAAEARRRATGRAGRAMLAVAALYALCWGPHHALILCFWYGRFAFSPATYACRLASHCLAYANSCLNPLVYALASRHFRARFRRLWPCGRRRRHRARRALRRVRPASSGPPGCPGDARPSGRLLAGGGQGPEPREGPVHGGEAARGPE

cells = assay type: functional, cell-based; details: HEK-CNG
Phospholipase A2 = Phospholipase A2 (Homo sapiens, UniProt P04054); assay type: functional;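 also: confirmatory dose-response counterscreen on phospholipase A2, testing hits that came from an ultra-high-throughput screen for ATG4B inhibitors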
Cysteine protease ATG4B = target: T4, Cysteine protease ATG4B (Homo sapiens, UniProt Q9Y4P1); assay type: functional;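 also: Fluorescence-based dose-response confirmation assay measuring inhibition of ATG4B activity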
T4 sequence (Q9Y4P1 whole entry): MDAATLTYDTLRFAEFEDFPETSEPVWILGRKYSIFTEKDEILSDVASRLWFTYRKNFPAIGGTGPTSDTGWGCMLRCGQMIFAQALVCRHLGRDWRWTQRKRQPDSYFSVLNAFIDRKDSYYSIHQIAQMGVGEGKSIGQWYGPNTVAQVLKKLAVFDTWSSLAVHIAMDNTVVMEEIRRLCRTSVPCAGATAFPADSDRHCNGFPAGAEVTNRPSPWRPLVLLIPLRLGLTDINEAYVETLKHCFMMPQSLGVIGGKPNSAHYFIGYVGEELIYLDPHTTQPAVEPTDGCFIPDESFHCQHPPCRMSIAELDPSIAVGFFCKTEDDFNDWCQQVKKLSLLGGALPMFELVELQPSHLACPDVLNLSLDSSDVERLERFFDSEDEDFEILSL

[10] = target: T5, Small ubiquitin-related modifier 1 (Homo sapiens, UniProt P63165); assay: SUMO1 protein interaction blockers, potency – biochemical, fluorescence polarization, uHTS hits, dose response (AID 624382); assay type: functional; details: read-out: IC50_Mean
[11] = target: T5, Small ubiquitin-related modifier 1; assay: SUMO1 protein-protein binding blockers, potency – biochemical, FRET, dose response (AID 624383); assay type: functional; details: read-out: IC50_Mean

T5 sequence (P63165 whole entry): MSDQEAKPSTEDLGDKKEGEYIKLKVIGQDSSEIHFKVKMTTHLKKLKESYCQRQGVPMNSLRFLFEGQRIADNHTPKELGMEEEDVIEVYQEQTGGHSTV
Sequence of Phospholipase A2 (P04054 whole entry): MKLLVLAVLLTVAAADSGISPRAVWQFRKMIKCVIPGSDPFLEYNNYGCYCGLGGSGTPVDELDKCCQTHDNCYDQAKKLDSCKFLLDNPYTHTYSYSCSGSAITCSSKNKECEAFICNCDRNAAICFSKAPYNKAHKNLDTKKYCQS

SMILES: CC[C@@]1(C(=O)OC)N[C@H](CN(C)C(=O)c2ccc(C(C)(C)C)cc2)[C@@H]2C(=O)N(Cc3ccccc3)C(=O)[C@@H]21
- AC50 [1]: 18.3 µM (active)
- AC50 [2]: 10.1 µM (active)
- AC50 [3]: 6.06 µM (active)
- AC50 [4]: 8.17 µM (active)

SMILES: c1cc(Nc2cccc3nccnc23)c2nccnc2c1
- EC50 [5]: > 99 µM (inactive)
- IC50 [6]: 25.6 µM (inactive)
- CC50 [7]: 31.7 µM (active)
- IC50 [8]: 24.5 µM (inactive)
- EC50 [9]: > 99 µM (inactive)

SMILES: CC(C)Cn1c(N)c(C(=O)COC(=O)/C=C/c2ccccc2)c(=O)n(C)c1=O
- IC50 (Galanin receptor type 3): > 29.9 µM (inactive)
- EC50 (cells): > 29.9 µM (inactive)

SMILES: Clc1ccccc1CN1CCN(c2ccccc2Cl)CC1
- IC50 (Phospholipase A2): 6.52 µM (active)
- IC50 (Cysteine protease ATG4B): 11.5 µM (active)

SMILES: O=C1C=C(c2cccc(Cl)c2O)C[C@@H](c2ccc(Cl)cc2)C1
- IC50 [6]: 2.66 µM (active)
- IC50 [8]: 1.15 µM (active)

SMILES: CCOC(=O)C1=C(COc2ccccc2)NC(=O)NC1c1ccc(Cl)cc1 (configuration not stated)
- IC50 [10]: > 66.6 µM (inactive)
- IC50 [11]: 15.7 µM (active)
